From BindingDB's records for doi:10.1016/j.bmcl.2015.05.100 (Eli Lilly, 2015) come the findings set out here.

As usually defined, the pIC50 is −log10 of the IC50, conventionally taken in molar units. A low value points to a high IC50.

The target of experiment [1] is Cyclin-dependent kinase 2 (Homo sapiens, UniProt P24941). The experiment can be described thus: Inhibition of CDK2 (unknown origin) using GST-fused pRb (792 to 928) as substrate preincubated for 2 mins followed by [gamma-32P]-ATP addition measured after 15 mins by beta plate counting analysis.
The target in experiment [2] is Cyclin-dependent kinase 4 (Homo sapiens, UniProt P11802). Put plainly: Inhibition of CDK4 (unknown origin) using GST-fused pRb (792 to 928) as substrate preincubated for 2 mins followed by [gamma-32P]-ATP addition measured after 15 mins by beta plate counting analysis.
Chain of Cyclin-dependent kinase 4 (P11802 whole entry, the tested form may be a part): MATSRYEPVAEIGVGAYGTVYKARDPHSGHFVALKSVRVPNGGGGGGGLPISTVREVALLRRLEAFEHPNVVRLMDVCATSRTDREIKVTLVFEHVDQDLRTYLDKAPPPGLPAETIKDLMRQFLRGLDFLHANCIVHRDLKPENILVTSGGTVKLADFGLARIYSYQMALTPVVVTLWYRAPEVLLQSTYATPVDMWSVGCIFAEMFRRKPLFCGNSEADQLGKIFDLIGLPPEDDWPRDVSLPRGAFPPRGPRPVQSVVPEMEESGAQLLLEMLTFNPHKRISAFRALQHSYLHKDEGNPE

Molecules are shown by their SMILES. pIC50: −log10 of the molar value.

In experiment [1], `Cc1c(Br)c(=O)n(C2CCCC2)c2nc(Nc3ccc(N4CCNCC4)cc3)ncc12` [6-bromo-8-cyclopentyl-5-methyl-2-{[4-(piperazin-1-yl)phenyl]amino}-7H,8H-pyrido[2,3-d]pyrimidin-7-one] gave a negative-log IC50 (pIC50) of 6.36.

For the molecule `O=c1c(Br)cc2cnc(Nc3ccc(N4CCNCC4)cc3)nc2n1C1CCCC1`, the figures for the pIC50 in experiment [2] and in experiment [1] were 8.70 and 7.37, respectively.

Regarding `CC(=O)c1c(C)c2cnc(Nc3ccc(N4CCNCC4)cc3)nc2n(C2CCCC2)c1=O` [8-cyclopentyl-6-acetyl-5-methyl-2-{[4-(piperazin-1-yl)phenyl]amino}-7H,8H-pyrido[2,3-d]pyrimidin-7-one], the negative logarithm of the IC50 (pIC50) in experiment [2] was 8.70.
